Data on 1 molecule can be found in US20160280641A1, “Method for refining 2-nito-4-methylsulfonyl benzoic acid and intermediate thereof” (priority 2013, published 2016).

A short description of this data set: Ames test of mesotrione products. Format: cell-based. The following applies: mesotrione products made from the fine 2-nitro-4-methylsulfonyl benzoic acids obtained by different processes. As to the method:
The fine 2-nitro-4-methylsulfonyl benzoic acids obtained by different processes are transformed into mesotrione products, and activities thereof are tested in Ames tests, wherein Ames responses are negative.
In general terms: The Ames test detects mutagens through reverse mutation in bacteria.

Consider `CS(=O)(=O)c1ccc(C(=O)C2C(=O)CCCC2=O)c([N+](=O)[O-])c1` [mesotrione, 2-(4-methanesulfonyl-2-nitrobenzoyl)-1,3-cyclohexanedione], for which the Ames responses entry was “negative”.
